Test results as given in US10633630B2, “Acceleration of Mycobacterium growth” (ST GEORGE'S HOSPITAL MEDICAL SCHOOL, priority 2014, dated 2020).
Non-standard residues stand in square brackets, D forms with d. No end group written: not given here. βAla = NCCC(=O)O

Tests used:
[1] = tested on: Mycobacterium avium subspecies paratuberculosis (MAP); experiment: Screen of TiKa peptide supplements for growth effects on MAP cultures (Example 1); assay type: cell-based; settings: supplemented at 20 mg/ml (final); over a 20 day period; vs identical inocula with no added supplement
Description: FX1=reduction in lag phase, FX2=increase in division rate.
The lag phase and division rate can be determined using routine methods in the art. Typically, growth and expansion of cells of a bacterial culture is determined by monitoring the optical density (OD) of the culture (e.g. the OD600 or the OD800 as illustrated in the Examples section below). The lag phase and the division rate can be determined from plots of the OD over time.
Using Mycobacterium avium subspecies paratuberculosis (MAP) as a target organism a bank of 109 short L enantiomer peptides and one D enantiomer peptide (TiKa 14D) were screened for the ability to supplement defined media (see below) to produce growth effects that produce biomass more rapidly than identical inocula of MAP with no added supplement.
The effects can be defined as: • A significant decrease in lag time (i.e the time it takes to recover from subculture and begin growing exponentially). With standard low inoculum this is at least 5 days but there is evidence that this phase can also be greatly extended in low inocula (see FIGS. 3 and 4). • An increase in division rate.

[2] = Growth curves at various concentrations of peptide (Example 5); assay type: cell-based; settings: for doubling time relative to the control / lag phase relative to the control without supplement: above the optimum concentration; for effects on the rate of division: below the optimum concentration; for optimum concentration of supplement: concentrations up to 80 μg/ml tested
Description: Part (A) presents results for the TiKa 14D peptide and part (B) presents results for the TiKa 102 peptide.
TiKa 14D and TiKa 102 were tested to identify the optimum concentration of supplement. Results are presented in FIGS. 5A and B for concentrations up to 80 μg/ml. […] Below the optimum concentration, the lag phase was either not affected (10 μg/ml of TiKa 14D) or was inhibited relative to the control (slightly for TiKa 14D at 5 μg/ml and for TiKa 102 at 20 μg/ml).

[3] = tested on: Mycobacterium avium subspecies paratuberculosis; assay type: cell-based; settings: TiKa 14D 20 μg/ml
[4] = tested on: cultures with different starting OD600 values; experiment: Effects of TiKa 14D on cultures with different starting OD600 values (Example 3); assay type: cell-based; settings: 20 μg/ml
Description: The effects of TiKa 14D on cultures with different starting OD600 values were tested. The TiKa 14D was present at a concentration of 20 μg/ml.
As shown in this Figure, at a starting OD600 of 0.2 TiKa 14D reduced the time to reach an OD600 of 0.6 by 7 days relative to a control without the supplement. At a starting OD600 of approximately 0.4, TiKa 14D reduced the time to reach an OD600 of 0.6 by 2 days relative to the control without the supplement.

MTB = experiment: Time to positivity in BacTAlert liquid media system (Example 4); assay type: cell-based
[5] = tested on: Mycobacterium tuberculosis

RLARIVVIRVAR-BB-K(biotin) [TiKa 103]
effect on MAP test culture (decrease in lag time, increase in division rate) [1]: positive effects

RRWRIVVIRVRR [TiKa 69]
effect on MAP test culture (decrease in lag time, increase in division rate) [1]: positive effects

RRWRIVVIRVRR-BB-K(biotin) [TiKa 102]
effect on MAP test culture (decrease in lag time, increase in division rate) [1]: positive effects | doubling time relative to the control [2]: still also reduced | lag phase relative to the control without supplement [2]: still improved | effects on the rate of division [2]: decreased proportionally | lag phase relative to the control ([2]; below the optimum concentration: 20 μg/ml): inhibited | optimum concentration of supplement [2]: 40 µg/mL

RRWRIVVIRVRR-bA-bA-C (RRWRIVVIRVRR[βAla][βAla]C) [TiKa 86]
effect on MAP test culture (decrease in lag time, increase in division rate) [1]: positive effects

WKIVFWWRR [TiKa 14D]
effect on MAP test culture (decrease in lag time, increase in division rate) [1]: positive effects | effect on growth curve [3]: positive effects | reduction of the time to reach an OD600 of 0.6 relative to a control without the supplement ([4]; starting OD600 of 0.2): 7 days | reduction of the time to reach an OD600 of 0.6 relative to a control without the supplement ([4]; starting OD600 of approximately 0.4): 2 days | Time to Positivity (TTP) compared to control media (MTB): decreased | doubling time relative to the control [2]: still also reduced | lag phase relative to the control without supplement [2]: still improved | effects on the rate of division [2]: decreased proportionally | lag phase relative to the control ([2]; below the optimum concentration: 5 μg/ml): inhibited | lag phase relative to the control ([2]; below the optimum concentration: 10 μg/ml): not affected | optimum concentration of supplement [2]: 20 µg/mL | effect on growth curve [5]: positive effects
